Key:
[1] = system: Liver; experiment: Drug uptake in Sprague-Dawley rat liver at 29.1 MBq after 70 to 100 mins post injection by PET imaging; format: ADME, tissue-based; details: in vivo
[2] = system: Cerebral cortex; experiment: Drug uptake in Sprague-Dawley rat cerebral cortex at 0.01 nM in presence of 100 uM histamine after 45 mins by autoradiography; format: ADME, tissue-based; details: 10 pM
[3] = Permeability from apical to basolateral side in MDCK2 cells by gamma counting; format: ADME, cell-based, Canis lupus familiaris; details: dog, mdck-ii
[4] = Drug uptake in Sprague-Dawley rat intraorbital lacrimal gland at 29.1 MBq after 70 to 100 mins post injection by PET imaging; format: ADME, tissue-based; details: in vivo
[5] = Distribution coefficient, log D of the compound in octanol and PBS buffer at pH 7.4 by shake-flask method; format: physicochemical
[6] = molecular target: T1, Histamine H3 receptor (Rattus norvegicus, UniProt Q9QYN8); experiment: Binding affinity to rat brain histamine H3 receptor after 1 hr by gamma counting
T1 sequence (Q9QYN8 whole entry): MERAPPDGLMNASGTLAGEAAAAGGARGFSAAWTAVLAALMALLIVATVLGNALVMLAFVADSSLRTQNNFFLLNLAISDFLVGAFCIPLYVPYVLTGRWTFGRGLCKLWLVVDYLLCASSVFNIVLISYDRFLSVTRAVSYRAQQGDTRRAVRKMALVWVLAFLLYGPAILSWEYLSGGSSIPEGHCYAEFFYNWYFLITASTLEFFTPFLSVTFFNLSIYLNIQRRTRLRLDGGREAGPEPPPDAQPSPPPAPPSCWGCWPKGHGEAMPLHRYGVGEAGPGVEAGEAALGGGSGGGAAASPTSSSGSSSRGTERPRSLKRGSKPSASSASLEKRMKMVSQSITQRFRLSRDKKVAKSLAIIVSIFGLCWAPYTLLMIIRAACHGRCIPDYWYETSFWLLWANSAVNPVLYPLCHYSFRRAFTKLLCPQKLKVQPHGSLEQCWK

[7] = Drug uptake in Sprague-Dawley rat thyroid gland at 29.1 MBq after 70 to 100 mins post injection by PET imaging; format: ADME, tissue-based; details: in vivo
[8] = system: Liver microsomes; experiment: Metabolic stability rat liver microsome after 120 mins by UPLC analysis; format: ADME; details: 2 h
[9] = system: Cerebral cortex; experiment: Drug uptake in Sprague-Dawley rat cerebral cortex at 0.01 nM after 45 mins by autoradiography; format: ADME, tissue-based; details: 10 pM
[10] = system: Rattus norvegicus; experiment: Stability in Sprague-Dawley rat assessed as parent compound level at 250 MBq, iv measured 5 to 30 mins post dose; format: ADME, organism-based; details: in vivo
[11] = Drug uptake in Sprague-Dawley rat urinary bladder at 29.1 MBq after 70 to 100 mins post injection by PET imaging; format: ADME, tissue-based; details: in vivo
[12] = system: Rattus norvegicus; experiment: Drug uptake in Sprague-Dawley rat at 29.1 MBq after 70 to 100 mins post injection coadministered with 1 mg/kg ST900 by PET imaging; format: ADME, organism-based; parameters: dose 1 mg/kg; details: in vivo
[13] = system: Striatum; experiment: Drug uptake in Sprague-Dawley rat striatum at 0.01 nM in presence of 100 uM histamine after 45 mins by autoradiography; format: ADME, tissue-based; details: 10 pM
[14] = system: MDR1; experiment: Apparent permeability from apical to basolateral side in MDCK2 cells expressing MDR1 by gamma counting; format: ADME, cell-based, Canis lupus familiaris, MDCK-II; details: dog, MDCK-MDR1
[15] = system: MDR1; experiment: Apparent permeability from basolateral to apical side in MDCK2 cells expressing MDR1 by gamma counting; format: ADME, cell-based, Canis lupus familiaris, MDCK-II; details: dog, MDCK-MDR1
[16] = system: Cerebellum; experiment: Drug uptake in Sprague-Dawley rat cerebellum at 0.01 nM after 45 mins by autoradiography; format: ADME, tissue-based; details: 10 pM
[17] = Drug uptake in Sprague-Dawley rat skeleton joint at 29.1 MBq after 70 to 100 mins post injection by PET imaging; format: ADME, tissue-based; details: in vivo
[18] = molecular target: T1, Histamine H3 receptor; experiment: Binding affinity to rat histamine H3 receptor low affinity site after 1 hr by Schard plot analysis
[19] = system: Thalamus; experiment: Drug uptake in Sprague-Dawley rat thalamus at 0.01 nM after 45 mins by autoradiography; format: ADME, tissue-based; details: 10 pM
[20] = system: Hippocampus; experiment: Drug uptake in Sprague-Dawley rat hippocampus at 0.01 nM after 45 mins by autoradiography; format: ADME, tissue-based; details: 10 pM
[21] = system: Intestine; experiment: Drug uptake in Sprague-Dawley rat intestine at 29.1 MBq after 70 to 100 mins post injection by PET imaging; format: ADME, tissue-based; details: in vivo
[22] = Drug uptake in Sprague-Dawley rat salivary gland at 29.1 MBq after 70 to 100 mins post injection by PET imaging; format: ADME, tissue-based; details: in vivo
[23] = system: Rattus norvegicus; experiment: Drug uptake in Sprague-Dawley rat at 29.1 MBq after 70 to 100 mins post injection coadministered with 2 mg/kg ciproxifan by PET imaging; format: ADME, organism-based; parameters: dose 2 mg/kg; details: in vivo
[24] = system: Striatum; experiment: Drug uptake in Sprague-Dawley rat striatum at 0.01 nM after 45 mins by autoradiography; format: ADME, tissue-based; details: 10 pM
[25] = Metabolic stability human plasma assessed as compound degradation at 60 MBq after 120 mins by UPLC analysis; format: ADME, cell-free; details: read-out: Drug degradation
[26] = system: Cerebral cortex; experiment: Drug uptake in Sprague-Dawley rat Cerebral cortex at 29.1 MBq after 70 to 100 mins post injection by PET imaging; format: ADME, tissue-based; details: in vivo
[27] = system: Plasma; experiment: Metabolic stability human plasma at 60 MBq after 60 mins by UPLC analysis; format: ADME, cell-free; details: 1 h
[28] = system: Hippocampus; experiment: Drug uptake in Sprague-Dawley rat hippocampus at 0.01 nM in presence of 100 uM histamine after 45 mins by autoradiography; format: ADME, tissue-based; details: 10 pM
[29] = system: MDR1; experiment: Efflux ratio of permeability from basolateral to apical side over apical to basolateral side in MDCK2 cells expressing MDR1 by gamma counting; format: ADME, cell-based, Canis lupus familiaris, MDCK-II; details: dog, MDCK-MDR1
[30] = system: Liver microsomes; experiment: Metabolic stability human liver microsome after 120 mins by UPLC analysis; format: ADME; details: 2 h
[31] = Permeability from basolateral to apical side in MDCK2 cells by gamma counting; format: ADME, cell-based, Canis lupus familiaris; details: dog, mdck-ii
[32] = Drug uptake in Sprague-Dawley rat Spinal colum at 29.1 MBq after 70 to 100 mins post injection by PET imaging; format: ADME; details: in vivo
[33] = Drug level in Sprague-Dawley urine rat assessed as parent compound level at 250 MBq, iv measured 30 mins post dose; format: ADME, organism-based; details: in vivo, 0.5 h
[34] = system: Adrenal gland; experiment: Drug uptake in Sprague-Dawley rat adrenal gland at 29.1 MBq after 70 to 100 mins post injection by PET imaging; format: ADME, tissue-based; details: in vivo
[35] = Metabolic stability human plasma assessed as parent compound level at 60 MBq after 90 mins by UPLC analysis; format: ADME, cell-free; details: read-out: Stability
[36] = system: Kidney; experiment: Drug uptake in Sprague-Dawley rat kidney pelvis at 29.1 MBq after 70 to 100 mins post injection by PET imaging; format: ADME, tissue-based; details: in vivo
[37] = system: Striatum; experiment: Drug uptake in Sprague-Dawley rat Striatum at 29.1 MBq after 70 to 100 mins post injection by PET imaging; format: ADME, tissue-based; details: in vivo
[38] = system: Thalamus; experiment: Drug uptake in Sprague-Dawley rat thalamus at 0.01 nM in presence of 100 uM histamine after 45 mins by autoradiography; format: ADME, tissue-based; details: 10 pM
[39] = Drug uptake in Sprague-Dawley rat harderin gland at 29.1 MBq after 70 to 100 mins post injection by PET imaging; format: ADME, tissue-based; details: in vivo
[40] = molecular target: T1, Histamine H3 receptor; experiment: Binding affinity to rat cerebral cortex histamine H3 receptor; format: tissue-based
[41] = Metabolic stability human liver microsomes assessed as compound oxidation after 90 mins by UPLC analysis; format: ADME, Microsome; details: read-out: Drug metabolism
[42] = system: Liver microsomes; experiment: Metabolic stability rat liver microsome after 90 mins by UPLC analysis; format: ADME; details: 1.5 h

SMILES: [18F]C1CCN(Cc2ccc(OCCCN3CCCCC3)cc2)CC1
- Drug uptake [1]: Active
- Drug uptake [2]: Not Active
- permeability [3]: permeable
- Drug uptake [4]: Active
- logD [5]: 0.35
- Kd [6]: 0.34 nM
- Drug uptake [7]: Active
- Stability [8]: Stable
- Drug uptake [9]: Active
- Stability [10]: Stable
- Drug uptake [11]: Active
- Drug uptake [12]: Active
- Drug uptake [13]: Not Active
- Papp A→B [14]: 0.16 ×10⁻⁶ cm/s
- Papp B→A [15]: 0.12 ×10⁻⁶ cm/s
- Drug uptake [16]: Not Active
- Drug uptake [17]: Active
- Kd [18]: > 3000 nM
- Drug uptake [19]: Active
- Drug uptake [20]: Active
- Drug uptake [21]: Active
- Drug uptake [22]: Active
- Drug uptake [23]: Active
- Drug uptake [24]: Active
- metabolised at 2 h, 60 MBq [25]: 3%
- Drug uptake [26]: Not Active
- Stability [27]: Stable
- Drug uptake [28]: Not Active
- efflux ratio [29]: 0.8
- Stability [30]: Stable
- permeability [31]: permeable
- Drug uptake [32]: Active
- Drug uptake [33]: 90%
- Drug uptake [34]: Active
- remaining at 1.5 h, 60 MBq [35]: 98%
- Drug uptake [36]: Active
- Drug uptake [37]: Not Active
- Drug uptake [38]: Not Active
- Drug uptake [39]: Active

SMILES: O=C(O)c1cn(C2CC2)c2cc(N3CCNCC3)c(F)cc2c1=O [CIPROFLOXACIN]
- Ki [40]: 0.654 nM

SMILES: C[C@]12CC[C@H]3[C@@H](CCC4=CC(=O)CC[C@@]43C)[C@@H]1CC[C@@H]2O [TESTOSTERONE]
- metabolised at 1.5 h [41]: 60%
- Stability [42]: Unstable

SMILES: CC[C@]1(O)C[C@@H]2CN(CCc3c([nH]c4ccccc34)[C@@](C(=O)OC)(c3cc4c(cc3OC)N(C)[C@H]3[C@@](O)(C(=O)OC)[C@H](OC(C)=O)[C@]5(CC)C=CCN6CC[C@]43[C@@H]65)C2)C1 [VINBLASTINE]
- Papp A→B [14]: 0.22 ×10⁻⁶ cm/s
- Papp B→A [15]: 3.24 ×10⁻⁶ cm/s
- efflux ratio [29]: 15
